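How tested: cells in 96-well plates exposed to compound for 48 hours at five concentrations. TGI: total growth inhibition.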
Experiments:
Test in all cases: DTP human tumour cell line panel, 48 h
[1] = system: T-47D breast
[2] = system: OVCAR-3 ovarian
[3] = system: SK-MEL-5 melanoma
[4] = system: LOX IMVI melanoma
[5] = system: SNB-75 CNS
[6] = system: NCI-H460 lung
[7] = system: COLO 205 colon
[8] = system: HCC-2998 colon
[9] = system: PC-3 prostate
[10] = system: M14 melanoma
[11] = system: NCI-H23 lung
[12] = system: MALME-3M melanoma
[13] = system: ACHN renal
[14] = system: SK-MEL-28 melanoma
[15] = system: HT29 colon
[16] = system: TK-10 renal
[17] = system: KM12 colon
[18] = system: A498 renal
[19] = system: HOP-92 NSCLC
[20] = system: SF-268 CNS
[21] = system: SF-295 CNS
[22] = system: U251 CNS
[23] = system: HL-60(TB) leukemia
[24] = system: MDA-MB-435
[25] = system: MDA-MB-231 breast
[26] = system: UACC-257 melanoma
[27] = system: MDA-N
[28] = system: EKVX NSCLC
[29] = system: DU-145 prostate
[30] = system: UO-31 renal
[31] = system: HS 578T breast
[32] = system: HCT-116 colon
[33] = system: NCI-H522 lung
[34] = system: 786-0 renal
[35] = system: OVCAR-5 ovarian
[36] = system: RXF 393 renal
[37] = system: A549 NSCLC
[38] = system: HOP-62 NSCLC
[39] = system: SK-OV-3 ovarian
[40] = system: MCF7 breast
[41] = system: K-562 leukemia
[42] = system: SW-620 colon
[43] = system: IGROV1 ovarian
[44] = system: SK-MEL-2 melanoma
[45] = system: SR leukemia
[46] = system: OVCAR-8 ovarian
[47] = system: UACC-62 melanoma
[48] = system: RPMI-8226 leukemia
[49] = system: CCRF-CEM leukemia
[50] = system: SNB-19 CNS
[51] = system: SN12C renal
[52] = system: MOLT-4 leukemia
[53] = system: SF-539 CNS
[54] = system: CAKI-1 renal
[55] = system: NCI/ADR-RES ovarian
[56] = system: HCT-15 colon
[57] = system: BT-549 breast
[58] = system: OVCAR-4 ovarian
[59] = system: NCI-H226 lung

C=C(CO)C(=O)OC1CC(=C)C2CC(O)C(C)C2C2OC(=O)C(=C)C12 (configuration not stated)
TGI [1]: > 100 µM
TGI [2]: 34.2 µM
TGI [3]: 50.9 µM
TGI [4]: > 100 µM
TGI [5]: 45.6 µM
TGI [6]: > 100 µM
TGI [7]: 90.4 µM
TGI [8]: 40.9 µM
TGI [9]: > 100 µM
TGI [10]: 33.4 µM
TGI [11]: > 100 µM
TGI [12]: 41.7 µM
TGI [13]: 34 µM
TGI [14]: 57.6 µM
TGI [15]: 53.9 µM
TGI [16]: 33.2 µM
TGI [17]: 33.6 µM
TGI [18]: > 100 µM
TGI [19]: 77.6 µM
TGI [20]: 39.4 µM
TGI [21]: 38.8 µM
TGI [22]: 64.2 µM
TGI [23]: 62.5 µM
TGI [24]: 45.2 µM
TGI [25]: 36.2 µM
TGI [26]: 32.7 µM
TGI [27]: 38 µM
TGI [28]: > 100 µM
TGI [29]: > 100 µM
TGI [30]: 36.6 µM
TGI [31]: 47.5 µM
TGI [32]: > 100 µM
TGI [33]: 45.8 µM
TGI [34]: > 100 µM
TGI [35]: > 100 µM
TGI [36]: 36.4 µM
TGI [37]: > 100 µM
TGI [38]: 46.5 µM
TGI [39]: > 100 µM
TGI [40]: 34.3 µM
TGI [41]: 82.2 µM
TGI [42]: 92.7 µM
TGI [43]: 39.3 µM
TGI [44]: 32 µM
TGI [45]: 51.2 µM
TGI [46]: 69.9 µM
TGI [47]: 35.3 µM
TGI [48]: 58.1 µM
TGI [49]: 77.7 µM
TGI [50]: 61.6 µM
TGI [51]: 32.7 µM
TGI [52]: 64.6 µM
TGI [53]: 37.8 µM
TGI [54]: 36.6 µM
TGI [55]: > 100 µM
TGI [56]: 35 µM
TGI [57]: 32.3 µM
TGI [58]: > 100 µM

CN(Cc1cnc2nc(N)nc(N)c2n1)c1ccc(C(=O)NCCCS(=O)(=O)O)cc1
TGI [1]: > 100 µM
TGI [2]: > 100 µM
TGI [3]: > 100 µM
TGI [4]: > 100 µM
TGI [5]: > 100 µM
TGI [6]: > 100 µM
TGI [7]: > 100 µM
TGI [8]: > 100 µM
TGI [9]: > 100 µM
TGI [10]: > 100 µM
TGI [11]: > 100 µM
TGI [12]: > 100 µM
TGI [13]: > 100 µM
TGI [14]: > 100 µM
TGI [15]: > 100 µM
TGI [16]: > 100 µM
TGI [17]: > 100 µM
TGI [18]: > 100 µM
TGI [20]: > 100 µM
TGI [21]: > 100 µM
TGI [22]: > 100 µM
TGI [24]: > 100 µM
TGI [25]: > 100 µM
TGI [26]: > 100 µM
TGI [27]: > 100 µM
TGI [28]: > 100 µM
TGI [29]: > 100 µM
TGI [30]: > 100 µM
TGI [31]: > 100 µM
TGI [32]: > 100 µM
TGI [33]: > 100 µM
TGI [34]: > 100 µM
TGI [35]: > 100 µM
TGI [37]: > 100 µM
TGI [38]: > 100 µM
TGI [39]: > 100 µM
TGI [40]: > 100 µM
TGI [41]: > 100 µM
TGI [42]: > 100 µM
TGI [43]: > 100 µM
TGI [44]: > 100 µM
TGI [45]: > 100 µM
TGI [46]: > 100 µM
TGI [47]: > 100 µM
TGI [48]: > 100 µM
TGI [50]: > 100 µM
TGI [51]: > 100 µM
TGI [52]: > 100 µM
TGI [53]: > 100 µM
TGI [55]: > 100 µM
TGI [56]: > 100 µM
TGI [59]: > 100 µM
TGI [57]: > 100 µM
TGI [58]: > 100 µM

CSC(=S)CC(O)[C@@H]1CC2c3ccccc3C1c1ccccc12 (some centres not stated)
TGI [1]: 37.7 µM
TGI [2]: 22.2 µM
TGI [3]: 30.5 µM
TGI [4]: 54.6 µM
TGI [6]: 40.8 µM
TGI [7]: 36.4 µM
TGI [8]: 28.2 µM
TGI [9]: 48.6 µM
TGI [10]: 27 µM
TGI [11]: 22.2 µM
TGI [12]: 39.1 µM
TGI [13]: 29.5 µM
TGI [14]: 48.5 µM
TGI [15]: 15 µM
TGI [16]: 30.7 µM
TGI [17]: 25.5 µM
TGI [18]: 37.3 µM
TGI [19]: 38.8 µM
TGI [20]: 45.4 µM
TGI [21]: 34.4 µM
TGI [22]: 13 µM
TGI [23]: 7.96 µM
TGI [24]: 26 µM
TGI [25]: 54.3 µM
TGI [27]: 28.3 µM
TGI [29]: 30.8 µM
TGI [30]: 25.6 µM
TGI [31]: 80.2 µM
TGI [32]: 20.9 µM
TGI [33]: 10.9 µM
TGI [34]: 41.3 µM
TGI [35]: 33.4 µM
TGI [36]: 7.54 µM
TGI [37]: 34.4 µM
TGI [38]: 38.2 µM
TGI [39]: 28.7 µM
TGI [40]: 62.1 µM
TGI [41]: 30.4 µM
TGI [42]: > 100 µM
TGI [43]: 33.1 µM
TGI [46]: 39.2 µM
TGI [47]: 25.4 µM
TGI [48]: 20.7 µM
TGI [49]: 10.6 µM
TGI [50]: 26.7 µM
TGI [51]: 45.2 µM
TGI [52]: 8.24 µM
TGI [53]: 37.8 µM
TGI [55]: 54.7 µM
TGI [56]: 25.6 µM
TGI [59]: 79.1 µM
TGI [57]: 34.2 µM
TGI [58]: 27.5 µM

COC(=O)C(=O)C(C(=O)C(=O)Nc1ccc(Cl)c(Cl)c1)c1nc2ccc(C(=O)c3ccccc3)cc2[nH]c1=O (configuration not stated)
TGI [1]: > 100 µM
TGI [2]: > 100 µM
TGI [3]: > 100 µM
TGI [4]: > 100 µM
TGI [5]: > 100 µM
TGI [9]: > 100 µM
TGI [10]: > 100 µM
TGI [11]: > 100 µM
TGI [12]: > 100 µM
TGI [13]: > 100 µM
TGI [14]: > 100 µM
TGI [15]: > 100 µM
TGI [16]: > 100 µM
TGI [17]: > 100 µM
TGI [18]: > 100 µM
TGI [19]: > 100 µM
TGI [20]: > 100 µM
TGI [21]: > 100 µM
TGI [22]: > 100 µM
TGI [23]: > 100 µM
TGI [24]: > 100 µM
TGI [25]: > 100 µM
TGI [26]: > 100 µM
TGI [27]: > 100 µM
TGI [28]: > 100 µM
TGI [30]: > 100 µM
TGI [31]: > 100 µM
TGI [32]: > 100 µM
TGI [33]: > 100 µM
TGI [34]: > 100 µM
TGI [35]: > 100 µM
TGI [36]: > 100 µM
TGI [37]: > 100 µM
TGI [38]: > 100 µM
TGI [39]: > 100 µM
TGI [40]: > 100 µM
TGI [41]: 12.9 µM
TGI [42]: > 100 µM
TGI [43]: > 100 µM
TGI [44]: > 100 µM
TGI [46]: > 100 µM
TGI [47]: > 100 µM
TGI [48]: > 100 µM
TGI [49]: > 100 µM
TGI [50]: > 100 µM
TGI [51]: > 100 µM
TGI [52]: > 100 µM
TGI [53]: > 100 µM
TGI [54]: > 100 µM
TGI [55]: > 100 µM
TGI [59]: > 100 µM
TGI [57]: > 100 µM
